Data set [1] has as its system rat treated neonatally with low doses of streptozocin. Particulars: in vivo.
For another data set, the system named is diabetic rats. Particulars: treated diabetic rats, experiments run in parallel.

Take `[Na+].[Na+].[O]=[W](=[O])([O-])[O-]` [sodium tungstate]: the survival result in data set [1] is recorded as “all animals survived”. In addition, the mortality entry in the data set with diabetic rats is “about 10%”.
